Structures are written as SMILES.

For this experiment, the target named is T1, renin (Homo sapiens, UniProt P00797).
T1 sequence (P00797 67-406): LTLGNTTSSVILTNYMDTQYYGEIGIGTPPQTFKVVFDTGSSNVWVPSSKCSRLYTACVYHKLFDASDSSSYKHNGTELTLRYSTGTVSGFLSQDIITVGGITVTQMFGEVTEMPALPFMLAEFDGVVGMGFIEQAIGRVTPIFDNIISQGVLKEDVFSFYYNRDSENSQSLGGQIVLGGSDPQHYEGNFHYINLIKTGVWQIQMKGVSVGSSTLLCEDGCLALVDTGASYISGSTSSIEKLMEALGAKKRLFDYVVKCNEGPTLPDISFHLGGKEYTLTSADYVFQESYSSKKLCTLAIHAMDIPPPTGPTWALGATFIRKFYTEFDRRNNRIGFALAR
Description: renin inhibitory potency. Type of experiment: biochemical. Conditions: 2S,5S product compared with the 2R,5R isomer separated by HPLC. The source says: The activity of the compounds of the present invention as inhibitors of the angiotensinogen-cleaving activity of renin may be determined by studying (1) their ability to inhibit the angiotensinogen-cleaving activity of renin in vitro and (2) their ability to antagonize the exogenous renin-induced pressor response in vivo.

Turning to `CCCC[C@H](NC(=O)[C@H](Cc1ccccc1)NC(=O)N1CCOCC1)C(=O)N[C@@H](CC1CCCCC1)C(=O)C(F)(F)[C@@H](CC(C)C)C(=O)OCC` [Example 10, Ethyl (2S,5S)-2-isobutyl-3,3-difluoro-4-keto-5-N-(N-[morpholinocarbonyl-L-phenylalanyl]-L-norleucyl)-amino-6-cyclohexylhexanoate], the renin inhibitory potency result is given as “more active”.

For the origin of these results see patent US4855303A, “Fluorine containing renin inhibitors” (Pfizer Inc., priority 1988, dated 1989).
